Reference: publication PMC10385579, “Design, Synthesis, and Biological Evaluation of Indole-2-carboxamides as Potential Multi-Target Antiproliferative Agents” (Pharmaceuticals, 2023)
Where two headings read alike, the source gives them in different places.

Assays:
VEGFR-2 [1] = target: T1, VEGFR-2 (Homo sapiens, UniProt P35968); set-up: purchased Carna Biosciences, Inc; conditions: cited from earlier work
EGFR [2] = target: T2, EGFR (Homo sapiens, UniProt P00533); set-up: 645–1186); His6 (N); made in house; host or cells: Sf-9 insect cells (baculovirus; pBlueBacHis2B / pFASTBacHTc; conditions: cited from earlier work
T2 sequence (P00533 669-1210): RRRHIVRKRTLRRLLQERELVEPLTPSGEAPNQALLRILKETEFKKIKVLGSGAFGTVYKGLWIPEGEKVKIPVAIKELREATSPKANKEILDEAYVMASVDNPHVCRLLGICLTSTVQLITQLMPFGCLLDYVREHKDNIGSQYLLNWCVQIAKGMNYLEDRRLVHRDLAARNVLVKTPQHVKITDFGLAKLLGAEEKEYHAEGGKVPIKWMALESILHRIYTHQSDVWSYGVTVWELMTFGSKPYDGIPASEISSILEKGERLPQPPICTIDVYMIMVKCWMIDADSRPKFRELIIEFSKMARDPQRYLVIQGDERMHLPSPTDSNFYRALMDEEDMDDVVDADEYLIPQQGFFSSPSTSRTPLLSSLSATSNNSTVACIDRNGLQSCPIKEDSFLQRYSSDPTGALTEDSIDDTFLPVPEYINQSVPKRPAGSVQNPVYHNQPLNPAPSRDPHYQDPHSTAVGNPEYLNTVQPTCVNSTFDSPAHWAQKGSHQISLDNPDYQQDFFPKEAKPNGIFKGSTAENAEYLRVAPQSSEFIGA

cancer cell lines = tested on: cancer cell lines; set-up: method as in PMID 32920363, PMID 29407956, PMID 36770936, PMID 36015154, PMID 35078049; conditions: cited from earlier work
BRAF^V600E [3] = tested on: BRAF^V600E; set-up: method as in PMID 32920363, PMID 29407956, PMID 36770936, PMID 36015154, PMID 35078049; conditions: cited from earlier work
CDK2 = tested on: CDK2; set-up: method as in PMID 32920363, PMID 29407956, PMID 36770936, PMID 36015154, PMID 35078049; conditions: cited from earlier work
EGFR^T790M = tested on: EGFR^T790M; set-up: method as in PMID 32920363, PMID 29407956, PMID 36770936, PMID 36015154, PMID 35078049; conditions: cited from earlier work
[4] = Cell viability assay (MTT) on MCF-10A; type: cell-based; conditions: human, MCF-10A mammary gland epithelial cells, MCF-10A cells, four days
Protocol: To assess the viability of compounds IV and Va–i, the human mammary gland epithelial (MCF-10A) cell line was exploited. Compounds IV and Va–i were cultured for four days on MCF-10A cells before being evaluated for vitality using the MTT assay.
To test the viability of the new compounds, the human mammary gland epithelial (MCF-10A) cell line was used. Compounds IV and Va–i were incubated on MCF-10A cells for four days before being tested for viability using the MTT assay. See Supplementary Materials.
4.2. Biological evaluation
4.2.1. Cytotoxic activity using MTT Assay and evaluation of IC50
MTT assay was performed to investigate the effect of the synthesized compounds on mammary epithelial cells (MCF-10A). The cells were propagated in medium consisting of Ham's F-12 medium/ Dulbecco's modified Eagle's medium (DMEM) (1:1) supplemented with 10% foetal calf serum, 2 mM glutamine, insulin (10 μg/mL), hydrocortisone (500 ng/mL) and epidermal growth factor (20 ng/mL). Trypsin ethylenediamine tetra acetic acid (EDTA) was used to passage the cells after every 2-3 days. 96-well flat-bottomed cell culture plates were used to seed the cells at a density of 10^4 cells mL-1. The medium was aspirated from all the wells of culture plates after 24 h followed by the addition of synthesized compounds (in 200 μL medium to yield a final concentration of 0.1% (v/v) dimethyl sulfoxide) into individual wells of the plates. Four wells were designated to a single compound. The plates were allowed to incubate at 37°C for 96 h. Afterwards, the medium was aspirated and 3-[4,5-dimethylthiazol-2-yl]-2,5-diphenyltetrazolium bromide (MTT) (0.4 mg/mL) in medium was added to each well and subsequently incubated for 3 h. The medium was aspirated and 150 μL dimethyl sulfoxide (DMSO) was added to each well. The plates were vortexed followed by the measurement of absorbance at 540 nm on a microplate reader. The results were presented as inhibition (%) of proliferation in contrast to controls comprising 0.1%

[5] = tested on: human epithelial (A-549) cancer cell line; assay: Antiproliferative assay, A-549; type: cell-based; conditions: A549, read-out: Antiproliferative Activity IC50 ± SEM, A-549
Protocol: (§1) 4.2.1.2. Assay for antiproliferative effect
(§2) To explore the antiproliferative potential of compounds propidium iodide fluorescence assay was performed using different cell lines such as Panc-1 (pancreas cancer cell line), MCF-7 (breast cancer cell line), HT-29 (colon cancer cell line) and A-549 (epithelial cancer cell line), respectively.
(§3) To calculate the total nuclear DNA, a fluorescent dye (propidium iodide, PI) is used which can attach to the DNA, thus offering a quick and precise technique. PI cannot pass through the cell membrane and its signal intensity can be considered as directly proportional to quantity of cellular
(§4) DNA. Cells whose cell membranes are damaged or have changed permeability are counted as dead ones. The assay was performed by seeding the cells of different cell lines at a density of 3000-7500 cells/well (in200μl medium) in culture plates followed by incubation for 24h at 37 °C in humidified 5%CO2/95% air atmospheric conditions. The medium was removed; the compounds were added to the plates at 10 μM concentrations (in 0.1% DMSO) in triplicates, followed by incubation for 48h. DMSO (0.1%) was used as control. After incubation, medium was removed followed by the addition of PI (25 μl, 50μg/mL in water/medium) to each well of the plates. At - 80 °C, the plates were allowed to freeze for 24 h, followed by thawing at 25 °C. A fluorometer (Polar-Star BMG Tech) was used to record the readings at excitation and emission wavelengths of 530 and 620 nm for each well. The percentage cytotoxicity of compounds was calculated using […]
(§5) Where ATC= Absorbance of treated cells and AC= Absorbance of control. Erlotinib was used as positive control in the assay.

[6] = tested on: breast cancer (MCF-7) cell line; assay: Antiproliferative assay, MCF-7; type: cell-based; conditions: Homo sapiens, MCF7; read-out: Antiproliferative Activity IC50 ± SEM, MCF-7
Protocol: as §1, §2, §3, §4, §5

[7] = tested on: pancreatic cancer (Panc-1) cell line; assay: Antiproliferative assay, Panc-1; type: cell-based; conditions: Homo sapiens, read-out: Antiproliferative Activity IC50 ± SEM, Panc-1
Protocol: as §1, §2, §3, §4, §5

[8] = tested on: colon cancer (HT-29) cell line; assay: Antiproliferative assay, HT-29; type: cell-based; conditions: Homo sapiens, read-out: Antiproliferative Activity IC50 ± SEM, HT-29
Protocol: as §1, §2, §3, §4, §5

[9] = tested on: four human cancer cell lines (A-549, MCF-7, Panc-1, HT-29); assay: Antiproliferative assay, average over the four cancer cell lines (GI50); type: cell-based; conditions: average of the four cancer cell lines
Protocol: See Supplementary Materials.
as §1
To explore the antiproliferative potential of compounds propidium iodide fluorescence assay was performed using different cell lines such as Panc-1 (pancreas cancer cell line), MCF-7 (breast […]
as §3
DNA. Cells whose cell membranes are damaged or have changed permeability are counted as dead ones. The assay was performed by seeding the cells of different cell lines at a density of 3000- […]
The medium was removed; the compounds were added to the plates at 10 μM concentrations (in 0.1% DMSO) in triplicates, followed by incubation for 48h. DMSO (0.1%) was used as control. After incubation, medium was removed followed by the addition of PI (25 μl, 50μg/mL in water/medium) to each well of the plates. At - 80 °C, the plates were allowed to freeze for 24 h, followed by thawing at 25 °C. A fluorometer (Polar-Star BMG Tech) was used to record the readings at excitation and emission wavelengths of 530 and 620 nm for each well. The percentage cytotoxicity of compounds was calculated using […]
Where ATC= Absorbance of treated cells and AC= Absorbance of control. […]
positive control in the assay.

caspase-3 = assay: Caspase 3 assay in A-549 cells; type: cell-based, human; conditions: for Caspase-3 Conc: untreated control 66 pg/mL; for Caspase-3 Fold Change: vs untreated control
Protocol: Caspases play a crucial function in the induction and completion of apoptosis. Caspase-3 is an essential caspase that cleaves different proteins in cells, resulting in apoptosis. […]
4.2.5. Caspase-3 activation assay
Allow all reagents to reach room temperature before use. Gently mix all liquid reagents prior to use. Determine the number of 8-well strips needed for the assay. Insert these in the frame(s) for current use. Add 100 μl of the Standard Diluent Buffer to the zero standard wells. Well(s) reserved for chromogen blank should be left empty. Add 100 μl of standards and controls or diluted samples to the appropriate microtiter wells. The sample dilution chosen should be optimized for each experimental system. Tap gently on side of plate to mix. Cover wells with plate cover and incubate for 2 hours at room temperature. Thoroughly aspirate or decant solution from wells and discard the liquid, Wash wells 4 times. Pipette 100 μl of Caspase-3 (Active) Detection Antibody solution into each well except the chromogen blank(s). Tap gently on the side of the plate to mix. Cover plate with plate cover and incubate for 1 hour at room temperature. Thoroughly aspirate or decant solution from wells and discard the liquid, Wash wells 4 times. Add 100 μl Anti-Rabbit IgG HRP Working Solution to each well except the chromogen blank(s). Prepare the working dilution as described in Preparing IgG HRP. Cover wells with the plate cover and incubate for 30 minutes at room temperature. Thoroughly aspirate or decant solution from wells and discard the liquid. Wash wells 4 times. Add 100 μl of Stabilized Chromoge n to each well. The liquid in the wells will begin to turn blue. Incubate for 30 minutes at room temperature and in the dark. The incubation time for chromogen substrate is often determined by the microtiter plate reader used. Many plate readers have the capacity to record a maximum optical density (O.D.) of 2.0. The O.D. values should be monitored, and the substrate reaction stopped before the O.D. of the positive wells exceeds the limits of the instrument. The O.D. values at 450 nm can only be read after the Stop Solution has been added to each well. If using a reader that records only to 2.0 O.D., stopping the assay after […]
Add 100 μl of Stop Solution to each well. Tap side of plate gently to mix. The solution in the wells should change from blue to yellow. Read the absorbance of each well at 450 nm having blanked the plate reader against a chromogen blank composed of 100 μl each of Stabilized Chromogen and Stop Solution. Read the plate within 2 hours after adding the Stop Solution. Use a curve fitting software to generate the standard curve. A four-parameter algorithm provides the best standard curve fit. Read the concentrations for unknown samples and controls from the standard curve. Multiply value(s) obtained for sample(s) by the appropriate dilution factor to correct for the dilution in step 3. Samples producing signals greater than that of the highest standard should be diluted in Standard Diluent Buffer and reanalyzed.

EGFR [10] = target: T2, EGFR; assay: EGFR inhibitory assay
VEGFR-2 [11] = target: T1, VEGFR-2; assay: VEGFR-2 inhibitory assay
Protocol: Prepare all the solutions using autoclaved, deionized water and analytical grade reagents.
and store all the reagents at room temperature (unless indicated otherwise).
solution, add 5 mL ultra-pure water; 1×Kinase Assay Buffer: add 25 mL HEPES solution (1 M),
water, adjust pH to 7.5 and constant volume to 500 mL using ultrapure water; 4×Stop solution (40
mM): Mix 0.8 mL of the foregoing EDTA solution, 1 mL 10×Detection Buffer and 8.2 mL ultra-
pure water; 1×Detection Buffer: Mix 1 mL 10×Detection Buffer with 9 mL water; 4×VEGFR
μM) was added to 624 μL 1×Kinase Assay Buffer and mixed; 4×ULight™-labeled JAK1
concentration 5 μM) was added to 576 μL 1×Kinase Assay Buffer and mixed; 4×ATP Solution
2×substrate/ATP Mix: 560 μL foregoing 4×ULight™-labeled JAK1 and 560 μL 4×ATP solution
and mixed (prepared before use). The assays used an ULight-labeled peptide substrate and a
Europium-W1024-labeled antiphosphotyrosine antibody. The VEGFR-2 was purchased from
Carna Biosciences, Inc. (New York, USA). The 384-well plates were obtained from PerkinElmer.
5 μL 2×VEGFR-2 kinase solution (0.5 nM)
was added to 384-well plates homogeneous mixing and pre-reaction at room temperature for 30 min. Next, 2.5 μL 4×Ultra ULightTM-JAK-1(Tyr1023) Peptide (200 nM)/ATP (40 μM) was added to the corresponding wells of a 384-well plate. Negative control: 2.5 μL/well 4×substrate/ATP mixture and 7.5 μL 1×kinase assay buffer in 384-well plate well. Positive control:
μL/well 2×VEGFR-2 kinase solution was added to the 384-well plate, The final concentration of DMSO in the mixing system was 4%. After incubation at room temperature and dark for 60 min, 5 μL 4×stop solution was added to corresponding wells to react for 5 min and then 5 μL 4×detection mix was added to the corresponding wells of a 384-well plate. The mixture was centrifugally mixed and stayed for 60 min at room temperature for color development. The plate was read using a Envision plate reader. The inhibition rate (%) = (positive well reading-compound well reading)/(positive well reading-negative well reading)×100. The corresponding IC50 values were calculated using GraphPad Prism 5.0.

BRAF^V600E [12] = target: BRAF^V600E (Mus musculus, UniProt P28028, V585E); assay: BRAF^V600E inhibitory assay
Chain of BRAF^V600E (Mus musculus, UniProt P28028, V585E) (P28028 whole entry V585E): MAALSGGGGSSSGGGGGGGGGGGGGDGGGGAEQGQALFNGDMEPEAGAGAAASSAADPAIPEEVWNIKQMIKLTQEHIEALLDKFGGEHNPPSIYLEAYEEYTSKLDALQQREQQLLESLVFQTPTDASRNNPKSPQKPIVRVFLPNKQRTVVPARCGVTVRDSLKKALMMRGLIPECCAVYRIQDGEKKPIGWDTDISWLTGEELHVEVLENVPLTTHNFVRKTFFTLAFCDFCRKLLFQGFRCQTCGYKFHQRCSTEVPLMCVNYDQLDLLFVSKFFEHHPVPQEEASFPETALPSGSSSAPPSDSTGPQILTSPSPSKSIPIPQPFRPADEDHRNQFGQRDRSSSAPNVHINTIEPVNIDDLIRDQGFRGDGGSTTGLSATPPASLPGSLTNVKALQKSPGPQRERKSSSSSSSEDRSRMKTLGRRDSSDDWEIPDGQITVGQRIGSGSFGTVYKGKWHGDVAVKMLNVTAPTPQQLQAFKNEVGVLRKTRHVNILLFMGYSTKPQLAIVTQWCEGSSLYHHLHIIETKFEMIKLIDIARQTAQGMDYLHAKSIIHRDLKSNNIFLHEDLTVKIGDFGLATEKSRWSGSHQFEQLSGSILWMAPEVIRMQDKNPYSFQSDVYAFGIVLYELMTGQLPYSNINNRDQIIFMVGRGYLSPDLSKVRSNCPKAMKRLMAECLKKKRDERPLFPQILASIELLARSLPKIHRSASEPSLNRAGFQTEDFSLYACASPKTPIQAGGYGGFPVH
Protocol: BRAFV600E inhibitory assay
V600E mutant BRAF kinase assay was performed to investigate the activity of tested compounds against BRAF. Mouse full-length GST-tagged BRAFV600E (7.5 ng, Invitrogen, PV3849) was pre-incubated with drug (1 µL) and assay dilution buffer (4 µL) for 60 min at 25 °C. In assay dilution buffer, a solution (5 µL) containing MgCl2 (30 mM), ATP (200 µM), recombinant human full length (200 ng) and N-terminal His-tagged MEK1 (Invitrogen) was added to start the assay, subsequent to incubation for 25 min at 25 °C. The assay was stopped using 5X protein denaturing buffer (LDS) solution (5 µL). To further denature the protein, heat (70° C) was applied for 5 min.
10 µL of each reaction was loaded into the precast plates and electrophoresis was allowed to proceed. After completion of electrophoresis, the front part of the precast gel plate (holding hot ATP) was cut and afterwards cast-off. The dried gel was developed using a phosphor screen.

[13] = tested on: mutant EGFR vs wild-type EGFR; conditions: cited from earlier work
[14] = four cancer cell lines, read-out: GI50 vs four cancer cell lines

T1 sequence (P35968 20-1356): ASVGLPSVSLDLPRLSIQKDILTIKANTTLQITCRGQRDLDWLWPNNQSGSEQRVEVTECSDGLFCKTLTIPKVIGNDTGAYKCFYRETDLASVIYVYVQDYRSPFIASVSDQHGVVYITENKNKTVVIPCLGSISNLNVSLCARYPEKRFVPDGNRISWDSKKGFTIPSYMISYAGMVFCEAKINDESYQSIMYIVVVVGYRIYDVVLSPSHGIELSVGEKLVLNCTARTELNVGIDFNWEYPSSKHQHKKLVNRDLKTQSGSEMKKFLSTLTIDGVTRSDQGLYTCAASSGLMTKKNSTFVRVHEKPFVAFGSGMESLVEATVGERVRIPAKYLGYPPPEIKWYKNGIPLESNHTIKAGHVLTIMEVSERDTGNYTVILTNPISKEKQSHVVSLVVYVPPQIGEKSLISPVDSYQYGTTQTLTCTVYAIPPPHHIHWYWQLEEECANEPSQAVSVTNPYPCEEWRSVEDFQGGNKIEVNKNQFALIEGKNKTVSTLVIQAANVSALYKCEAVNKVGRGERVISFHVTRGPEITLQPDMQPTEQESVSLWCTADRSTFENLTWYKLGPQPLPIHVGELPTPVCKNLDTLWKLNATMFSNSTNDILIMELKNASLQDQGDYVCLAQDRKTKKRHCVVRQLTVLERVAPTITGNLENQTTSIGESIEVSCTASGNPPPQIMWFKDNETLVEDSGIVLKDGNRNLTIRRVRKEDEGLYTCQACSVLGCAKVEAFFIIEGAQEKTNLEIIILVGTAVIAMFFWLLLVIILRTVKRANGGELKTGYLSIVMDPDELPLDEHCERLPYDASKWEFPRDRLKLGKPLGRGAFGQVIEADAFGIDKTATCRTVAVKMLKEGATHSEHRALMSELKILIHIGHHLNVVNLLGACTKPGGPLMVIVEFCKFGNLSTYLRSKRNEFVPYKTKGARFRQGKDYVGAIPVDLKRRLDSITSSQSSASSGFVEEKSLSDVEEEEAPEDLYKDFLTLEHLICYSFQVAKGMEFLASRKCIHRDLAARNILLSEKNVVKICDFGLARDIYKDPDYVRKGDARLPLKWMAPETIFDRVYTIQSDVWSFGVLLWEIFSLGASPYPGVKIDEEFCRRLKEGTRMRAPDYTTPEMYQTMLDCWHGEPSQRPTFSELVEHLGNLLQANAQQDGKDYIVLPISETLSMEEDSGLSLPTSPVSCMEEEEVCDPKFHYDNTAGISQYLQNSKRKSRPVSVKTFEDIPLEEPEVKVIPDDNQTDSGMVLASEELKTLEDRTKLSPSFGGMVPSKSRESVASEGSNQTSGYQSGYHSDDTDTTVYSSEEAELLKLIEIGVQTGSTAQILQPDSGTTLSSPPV

c1nc(Nc2ccc(N3CCOCC3)cc2)cc(Oc2ccc3[nH]ccc3c2)n1 [Compound 4]
IC50 (VEGFR-2 [1]): 1200 nM | IC50 (EGFR [2]): 7 nM

Cc1c2cc(Cl)ccc2n2cc(Cc3ccccc3)[nH]c(=O)c12 [Compound 6]
GI50 (cancer cell lines; three cancer cell lines, read-out: GI50 vs three cancer cell lines): 500 nM | IC50 (BRAF^V600E [3]): 100 nM

Cc1c2n(c3ccc(Cl)cc13)C(=O)CN(CCc1ccc(N3CCOCC3)cc1)C2=O [Compound 7]
GI50 (cancer cell lines; [14]): 1100 nM | IC50 (BRAF^V600E [3]): 150 nM

CCOCc1c2n(c3ccc(Cl)cc13)C(=O)CN(CCc1ccc(N3CCOCC3)cc1)C2=O [Compound 9]
GI50 (cancer cell lines; [14]): 35 nM | IC50 (BRAF^V600E [3]): 45 nM

Cc1c(C(=O)NCCc2ccc(N3CCCC3C)cc2)[nH]c2ccc(Cl)cc12 (centres unmarked) [Compound 10]
GI50 (cancer cell lines; [14]): 950 nM | IC50 (CDK2): 13 nM

CCOC(=O)c1[nH]c2ccc(Cl)cc2c1CNCCc1cccc(N2CCCCC2)c1 [Compound 11]
GI50 (cancer cell lines; [14]): 29 nM | IC50 (BRAF^V600E [3]): 35 nM | IC50 (EGFR^T790M): 8.6 nM

CCc1c(C(=O)NCCc2ccc(N3CCOCC3)cc2)[nH]c2ccc(C)cc12 [Compound 12]
GI50 (cancer cell lines; [14]): 37 nM | IC50 (CDK2): 16 nM

CCOCc1c(C(=O)NCC(c2ccccc2)c2c(-c3ccccc3)[nH]c3ccccc23)[nH]c2ccc(Cl)cc12 (centres unmarked) [Compound Vh, 5-Chloro-3-(ethoxymethyl)-N-(2-phenyl-2-(2-phenyl-1H-indol-3-yl)ethyl)-1H-indole-2-carboxamide]
viability at 96 h, 50 µM [4]: 90% | IC50 [5]: 34 ± 3 nM | IC50 [6]: 38 ± 3 nM | IC50 [7]: 36 ± 3 nM | IC50 [8]: 38 ± 3 nM | GI50 [9]: 37 nM | Caspase-3 Conc (caspase-3): 460 ± 4 pg/mL | Caspase-3 Fold Change (caspase-3): 7 | melting point: 210 to 212 °C | IC50 (EGFR [10]): 85 ± 7 nM | IC50 (VEGFR-2 [11]): 3.25 ± 0.25 nM | IC50 (BRAF^V600E [12]): 89 ± 7 nM

C=CC(=O)Nc1cc(Nc2nccc(-c3cn(C)c4ccccc34)n2)c(OC)cc1N(C)CCN(C)C [Osimertinib]
selectivity for the mutant protein over wild-type EGFR [13]: approximately 200 times

O=C(NCC(c1ccccc1)c1c(-c2ccccc2)[nH]c2ccccc12)c1[nH]c2ccc(Cl)cc2c1CO (centres unmarked) [Ve, 5-Chloro-3-(hydroxymethyl)-N-(2-phenyl-2-(2-phenyl-1H-indol-3-yl)ethyl)-1H-indole-2-carboxamide]
viability at 96 h, 50 µM [4]: 90% | IC50 [5]: 42 ± 4 nM | IC50 [6]: 46 ± 4 nM | IC50 [7]: 44 ± 4 nM | IC50 [8]: 45 ± 4 nM | GI50 [9]: 44 nM | Caspase-3 Conc (caspase-3): 462 ± 4 pg/mL | Caspase-3 Fold Change (caspase-3): 7 | melting point: 132 to 134 °C | IC50 (EGFR [10]): 94 ± 7 nM | IC50 (VEGFR-2 [11]): 1.1 ± 0.08 nM | IC50 (BRAF^V600E [12]): 97 ± 8 nM

O=C(NCC(c1ccccc1)c1c(-c2ccccc2)[nH]c2ccccc12)c1[nH]c2ccc(Cl)cc2c1-c1ccccc1 (centres unmarked) [Vf, 5-Chloro-3-phenyl-N-(2-phenyl-2-(2-phenyl-1H-indol-3-yl)ethyl)-1H-indole-2-carboxamide]
viability at 96 h, 50 µM [4]: 91% | IC50 [5]: 46 ± 4 nM | IC50 [6]: 49 ± 4 nM | IC50 [7]: 48 ± 4 nM | IC50 [8]: 48 ± 4 nM | GI50 [9]: 48 nM | melting point: 131 to 133 °C | IC50 (EGFR [10]): 103 ± 8 nM | IC50 (VEGFR-2 [11]): 2.5 ± 0.2 nM | IC50 (BRAF^V600E [12]): 107 ± 9 nM
